Measurements from US5968791A, “Plant lysophosphatidic acid acyltransferases” (Calgene, Inc., priority 1995, dated 1999).

Experiments:
[1] = target: T1, coconut medium-chain LPAAT (Cocos nucifera, UniProt Q42670); assay: Assay of solubilized coconut LPAAT (S3 preparation) with phospholipid activation; format: biochemical; conditions: radioactivity of PA product resolved on TLC, after 30 min assay; S3 reactivated with PLs; acceptor 12:0-LPA
T1 construct: The frozen coconut P2 preparation is thawed and diluted in a volume of P2 Buffer; from tissue; host or cells: immature coconut endosperm, solubilized S3 supernatant of P2 membranes
T1 sequence (Q42670 1-308): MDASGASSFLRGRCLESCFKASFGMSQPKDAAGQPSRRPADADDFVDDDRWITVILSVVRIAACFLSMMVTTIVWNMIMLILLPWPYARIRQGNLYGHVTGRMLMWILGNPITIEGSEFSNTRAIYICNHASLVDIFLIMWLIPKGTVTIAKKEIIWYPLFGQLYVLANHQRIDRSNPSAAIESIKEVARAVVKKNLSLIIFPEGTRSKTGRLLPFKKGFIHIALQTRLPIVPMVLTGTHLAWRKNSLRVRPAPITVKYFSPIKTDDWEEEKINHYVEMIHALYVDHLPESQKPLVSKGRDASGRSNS
Protocol: After solubilization of LPAAT protein from plant membranes as described below, modification of the above assay conditions is required in order to detect maximum LPAAT activity. This is especially important after the solubilized LPAAT has been chromatographed on at least one column. The important modification to the assay is the addition, at the start of the assay procedure, of 1 μl of a concentrated phospholipid (PL) solution to 20 μl of the LPAAT-containing sample in a glass vial. The high concentrations of CHAPS (at least 1% w/v) and NaCl (typically 0.5M or greater) in the solubilized LPAAT preparation aid in dispersal of the phospholipids. The phospholipid solution is obtained by sonicating crude soybean phospholipids (L-phosphatidylcholine from soybean, "Type IVs" obtained from Sigma Chemical Company, St. Louis) at 50 mg/ml in 0.5% (w/v) CHAPS (3-[(3-cholamidopropyl) -dimethylammonio]-1-propane-sulfonate) until a uniform suspension is obtained.
The remaining assay ingredients (as described above), with the exception of the acyl-CoA substrate, are then added as 219 μl of a mixture. […] Radiolabeled acyl-CoA (10 μl, or an appropriately adjusted volume as indicated above) is added to start the LPAAT-catalyzed reaction and the rest of the assay procedure is completed as described above.
All steps are carried out at 0-4° C. The frozen coconut P2 preparation is thawed and diluted in a volume of P2 Buffer to achieve a protein concentration of 0.94 mg/ml P2 protein. Protein concentration is determined by Coomassie dye staining relative to a bovine serum albumin standard. The P2 membrane suspension is then diluted with an equal volume of Solubilization Buffer (50 mM HEPES-NaOH, pH 7.5, […], 20% (w/v) glycerol, 4.5% (w/v) CHAPS, 100 μM Pefabloc, 1 μM leupeptin, 1 μM Pepstatin A, and 5 mM β-ME), resulting in final concentrations of 1M NaCl, 2.25% (w/v) detergent, and 0.47 mg/ml protein. These component concentrations, and the resulting detergent/protein ratio of 48/1 (w/w), are important for optimal solubilization. The preparation is then incubated on ice for 30 minutes with occasional, gentle stirring, followed by centrifugation at 252,000×g for 2 hours. The resulting supernatant fraction (S3) is filtered through buffer-wetted Miracloth, and may then be stored frozen (-70) with only slight loss of activity. Optimally, it is applied to chromatography columns without an intervening freeze-thaw cycle.
Assay of the coconut medium-chain LPAAT activity after solubilization (S3 preparation) and reactivation with PLs, using different acyl-CoA substrates, provides the following results (Table 3). In all these assays the acceptor substrate is 12:0-LPA.

coconut LPAAT = target: T2, coconut LPAAT (Cocos nucifera, UniProt Q42670); assay: Acyl-CoA specificity of coconut LPAAT expressed in E. coli (pCGN5505), membrane fractions; format: biochemical; set-up: the SalI/BamHI fragment of pCGN5504 containing the entire coconut LPAAT encoding region; made in house; host or cells: E. coli BL21(DE3), membrane fractions; conditions: acceptor 12:0-LPA
T2 sequence (Q42670 1-308): T1 sequence (Q42670 1-308)
Protocol: The samples are centrifuged at 12,000 g for 15 minutes. The resulting supernatant fractions are centrifuged for two hours at 134,000 g, and the pelleted membranes suspended in 50 mM HEPES, 200 mM NaCl, 20% (w/v) glycerol, 5 mM β-mercaptoethanol, pH 7.5. Membrane fractions are assayed for acyl-CoA substrate specificities with 12:0-LPA and various acyl-CoA species as described in Example 1. Membrane preparations from cultures of E. coli and from immature coconut endosperm are combined with soybean phospholipids and diluted in 1M NaCl in Buffer A to simulate the pre-assay conditions of the solubilized enzyme.

[2] = target: T3, LPAAT of transformant 5511-5 (Cocos nucifera, UniProt Q42670); assay: LPAAT acyl-CoA specificity, P2 preparation of LPAAT-transformed line 5511-5; format: biochemical, Rapeseed; conditions: acyl-CoA donor varied at 5 μM, acceptor 12:0-LPA; 30 minute reaction
T3 construct: crude P2 membranes, host LPAAT also present
T3 sequence (Q42670 1-308): T1 sequence (Q42670 1-308)
Protocol: Detailed acyl-CoA chain-length specificity analysis of control P2 preparations and LPAAT-transformed line 5511-5 were determined as described above, using the original 30 minute reaction time. The acyl-CoA substrates for this analysis are present in methanol, and thus the assay also had the following modifications. The first solution placed in the assay vial was the volume of each radiolabeled acyl-CoA required for 5 μM final assay concentration. […] After mixing to redissolve the acyl-CoA off the vial wall, the reaction is started by addition of 25 μl of a 5-fold diluted P2 preparation and continued as before. Acyl-CoA substrates used in this analysis were 8:0, 10:0, 12:0, 14:0, 16:0, 18:0, and 18:1. The acceptor substrate in these assays was 12:0-LPA.

Row | Compound | LPAAT Activity, solubilized coconut LPAAT [1] [cpm] | utilization by E. coli expressed coconut LPAAT (coconut LPAAT) | Cpm PA Product, 5511-5 [2] [Cpm]
1 | CCCCCCCC(=O)SCCNC(=O)CCNC(=O)[C@H](O)C(C)(C)COP(=O)(O)OP(=O)(O)OC[C@H]1O[C@@H](n2cnc3c(N)ncnc32)[C@H](O)[C@@H]1OP(=O)(O)O [8:0] | 16 | some minor activity detectable | 454
2 | CCCCCCCCCC(=O)SCCNC(=O)CCNC(=O)[C@H](O)C(C)(C)COP(=O)(O)OP(=O)(O)OC[C@H]1O[C@@H](n2cnc3c(N)ncnc32)[C@H](O)[C@@H]1OP(=O)(O)O [10:0] | 162 | most active | 5648
3 | CCCCCCCCCCCC(=O)SCCNC(=O)CCNC(=O)[C@H](O)C(C)(C)COP(=O)(O)OP(=O)(O)OC[C@H]1O[C@@H](n2cnc3c(N)ncnc32)[C@H](O)[C@@H]1OP(=O)(O)O [12:0, lauroyl-CoA] | 205 | most active | 9337
4 | CCCCCCCCCCCCCC(=O)SCCNC(=O)CCNC(=O)[C@H](O)C(C)(C)COP(=O)(O)OP(=O)(O)OC[C@H]1O[C@@H](n2cnc3c(N)ncnc32)[C@H](O)[C@@H]1OP(=O)(O)O [14:0] | 84 | most active | 5080

Results, then the molecule that gave them:

Row | LPAAT Activity, solubilized coconut LPAAT [1] [cpm] | utilization by E. coli expressed coconut LPAAT (coconut LPAAT) | Cpm PA Product, 5511-5 [2] [Cpm] | Compound
5 | 18 |  | 4569 | CCCCCCCCCCCCCCCC(=O)SCCNC(=O)CCNC(=O)[C@H](O)C(C)(C)COP(=O)(O)OP(=O)(O)OC[C@H]1O[C@@H](n2cnc3c(N)ncnc32)[C@H](O)[C@@H]1OP(=O)(O)O [16:0]
6 | 30 |  | 8430 | CCCCCCCC/C=C\CCCCCCCC(=O)SCCNC(=O)CCNC(=O)[C@H](O)C(C)(C)COP(=O)(O)OP(=O)(O)OC[C@H]1O[C@@H](n2cnc3c(N)ncnc32)[C@H](O)[C@@H]1OP(=O)(O)O [18:1, oleoyl-CoA]
